Where “and” joins values, the source holds several entries; their conditions need not be identical. Equal entries are not always repeated.
Columns and labels:
[1] = Oral bioavailability in dogs; format: in vivo, beagle dogs; settings: 1.4 μmol/kg p.o.
Protocol: Assay: The compound was given to N=3 male beagle dogs in tritiated form:
The concentration of the compound in blood was determined by LC-RID. The procedure involved the addition of 5 μg of the compound as internal standard (200 μL of solution containing 25 μg/mL of the compound) to 1 mL of blood. After further addition of 1 mL of water, 0.1 mL of buffer pH 9 and 4 mL of tert-butylmethylether, the samples were shaken for 30 min and centrifuged (4000 g for 10 min at 22° C.). The organic phase was transferred into a tube and evaporated in a Speedvac. The residue was reconstituted in 250 μL of mobile phase-water (80:20 v/v) followed by 75 μL of n-hexane and transferred into an autosampler vial. After centrifugation (13,000 g for 2 min at 22° C.), the hexane layer was pipetted off and discarded, 200 μL of the remainder was injected onto an RP18 column (Waters XTerra, 5 μm, 3.9×150 mm at 40° C.) to separate the compound from potential metabolites and endogenous compounds. The mobile phase of ammonium acetate (10 mM: 0.1% v/v TFA-acetonitrile, 58:42 v/v) was used at a flow rate of 1.0 mL/min. The effluent was monitored by a UV-detector set at 261 nm. The peak corresponding to the unchanged compound was collected in a polyethylene vial by a fraction collector (SuperFrac, Pharmacia LKB) and analyzed for radioactivity. The concentration of the compound in each sample was calculated from the ratio of the amount of radioactivity in the eluate fraction to the area of the ultraviolet absorbance of the non-radiolabeled the compound, that was used as the internal standard.

[2] = Loss on drying / initial water content; format: physicochemical; set-up: Initial water content: unit not given here
[3] = Stability of the active ingredient in tablets; format: physicochemical; settings: tablets where only certain lubricants are used
Protocol: It is particularly important that the active ingredient remains chemically stable over a potential long shelf time. When assessing storage stability, relative amounts of individual degradation products compared to the total amount of active ingredient are taken into consideration. Individual degradation products should all be present in low relative amounts to ensure that no single product can reach a non-acceptable level, e.g. when the active ingredient is administered in high doses.

[4] = Particle size measurements by Fraunhofer light diffraction; format: physicochemical; settings: N=8
Protocol: Mean particle sizes, X90 and X10 are typically measured by Fraunhofer light diffraction.
To about 0.5 g of test substance add some drops of the dispersing aid (1% Octastat 5000 (Octel Corp.) in white spirit (Sangajol, Schweizerhall Chemie)). Mix intensively on a vortex mixer, in order to wet the substance thoroughly and to form a smooth and homogeneous paste. Dilute the paste with white spirit to a final volume of 3-6 ml and mix the dispersion again. Determine the cumulative volume distribution using a laser diffraction instrument, e.g. determine the particle sizes at the undersize values of 10%, 50% and 90% (x10, x50, x90). Measuring device: Sympatec HELOS (Sympatec GmbH; focal length: 500 mm, optical concentration≥5%, duration of measurement: 40 sec).
Dispersion device: Suspension cell (QUIXEL, Sympatec GmbH).

[5] = Pharmacokinetics in rats after oral administration; format: in vivo, Wistar rats; settings: 10 mg/kg oral
Protocol: If a salt forming agent is used (e.g. fumarate), a corresponding higher amount of the salt will be used to achieve the intended dosing.
Both compounds were dissolved in Klucel™ (0.5% in water) and were orally administered by gavage (5 ml/kg) to conscious rats (n=8, cross-over design).
K3-EDTA blood (˜0.2 ml) was collected by puncture of a sublingual vein under light isoflurane anesthesia at the following time points: 0.25, 0.5, 1, 2, 3, 4, 6, 8, 24 h post dose. Immediately after sampling, blood samples were put on ice and were processed to plasma by centrifugation at 4° C. within 15 min after sampling (1000 g, 10 min, 4° C.) to obtain ˜100 μl plasma/sample. All plasma samples were stored at −80° C. until analysis. Since the PK study was performed in a cross-over design, a recovery period of approximately 2 weeks took place before the next treatment/blood sampling was performed.
The determination of compounds in plasma was done by LC-MS/MS using electrospray ionization.

[6] = Hygroscopicity (moisture gain at relative humidity); format: physicochemical; set-up: Hygroscopy @ 85% RH: unit not given here
[7] = Stability in buffer solutions and in solid state; format: physicochemical
[8] = Known multiple solid forms; format: physicochemical; settings: comparison table, Example 7
[9] = Decomposition temperature; format: physicochemical; set-up: unit not given here; settings: comparison table, Example 7
[10] = male Wistar rats (n=8), mean (text: ± SD)
[11] = male Wistar rats, individual rats 01-08, listed as mono-fumarate, 10 mg/kg

For Cc1ccc(-c2ccc(O[C@H]3CN4CCC3CC4)cn2)cc1.O=C(O)/C=C/C(=O)O [Compound B, (R)-3-(6-(4-methylphenyl)-pyridin-3-yloxy)-1-aza-bicyclo[2.2.2]octane hydrogenfumarate], the “Plasma (pmoles/ml ± SD)” value ([1]; 0.25 hour) was 14.7 ± 1.1 pmol/mL, the “Plasma (pmoles/ml ± SD)” value ([1]; 0.5 hour) was 49.4 ± 21.9 pmol/mL and the “Plasma (pmoles/ml ± SD)” value ([1]; 1 hour) was 67.6 ± 22.6 pmol/mL. For the same compound, the “Plasma (pmoles/ml ± SD)” value ([1]; 2 hour) was 75.2 ± 36.8 pmol/mL, the “Plasma (pmoles/ml ± SD)” value ([1]; 4 hour) was 27.5 ± 13.3 pmol/mL and the “Plasma (pmoles/ml ± SD)” value ([1]; 8 hour) was 8.1 ± 3.0 pmol/mL. The “Plasma (pmoles/ml ± SD)” value ([1]; 24 hour) was 0.8 ± 0.7 pmol/mL, the “Loss on drying (LOD) of a sample” value [2] was < 0.03% and the Initial water content ([2]; comparison table, Example 7) was <0.5. For the same compound, the stability in tablets [3] was “very stable”, the “particle size x10” value [4] was 5.6±0.5 μm and the “particle size x50 (mean particle size)” value [4] was 26.8±1.3 μm. For the same compound, the “particle size x90” value [4] was 77.3±3.3 μm, the “Concentration of free form in plasma, Mean All” value ([5]; male Wistar rats (n=8), 0.25 h, mean) was 149 ng/mL and the “Concentration of free form in plasma, Mean All” value ([5]; male Wistar rats (n=8), 0.5 h, mean) was 132 ng/mL. The “Concentration of free form in plasma, Mean All” value ([5]; male Wistar rats (n=8), 1 h, mean) was 77.4 ng/mL, the “Concentration of free form in plasma, Mean All” value ([5]; male Wistar rats (n=8), 2 h, mean) was 38.9 ng/mL and the “Concentration of free form in plasma, Mean All” value ([5]; male Wistar rats (n=8), 3 h, mean) was 19.5 ng/mL. The “Concentration of free form in plasma, Mean All” value ([5]; male Wistar rats (n=8), 4 h, mean) was 10.6 ng/mL, the “Concentration of free form in plasma, Mean All” value ([5]; male Wistar rats (n=8), 6 h, mean) was 5.10 ng/mL and the “Concentration of free form in plasma, Mean All” value ([5]; male Wistar rats (n=8), 8 h, mean) was 2.54 ng/mL. For the same compound, the “Concentration of free form in plasma, Mean All” value ([5]; male Wistar rats (n=8), 24 h, mean) was 0.320 ng/mL, the “Tmax (h), all rats” value ([5]; male Wistar rats (n=8), Median [range], listed as mono-fumarate) was 0.25 [0.25-0.50]^a h and the “Cmax/Dose (ng/mL)/(mg/kg), Mean All” value ([5]; male Wistar rats (n=8), mean) was 16.5 (ng/mL)/(mg/kg). For the same compound, the “AUClast (h · ng/mL), Mean All” value [5, 10] was 249 ± 42 ng·h/mL, the “Cmax (ng/mL), Mean All” value [5, 10] was 161 ± 53 ng/mL and the “Concentration of free form in plasma” value ([5]; male Wistar rats, 0.25 h, individual rats 01-08) was 89.0 ng/mL. For the same compound, the “Concentration of free form in plasma” value ([5]; male Wistar rats, 0.25 h, individual rats 01-08, listed as mono-fumarate, 10 mg/kg) was 167 ng/mL and 162 ng/mL and 77.8 ng/mL and 242 ng/mL and 204 ng/mL and 93.3 ng/mL and 153 ng/mL, the “Concentration of free form in plasma” value ([5]; male Wistar rats, 0.5 h, individual rats 01-08) was 130 ng/mL and the “Concentration of free form in plasma” value ([5]; male Wistar rats, 0.5 h, individual rats 01-08, listed as mono-fumarate, 10 mg/kg) was 104 ng/mL and 78.4 ng/mL and 99.7 ng/mL and 143 ng/mL and 179 ng/mL and 184 ng/mL and 138 ng/mL. The “Concentration of free form in plasma” value ([5]; male Wistar rats, 1 h, individual rats 01-08, listed as mono-fumarate, 10 mg/kg) was 67.1 ng/mL and 88.8 ng/mL and 41.3 ng/mL and 62.8 ng/mL and 83.2 ng/mL and 80.8 ng/mL and 101 ng/mL and 94.2 ng/mL, the “Concentration of free form in plasma” value ([5]; male Wistar rats, 2 h, individual rats 01-08, listed as mono-fumarate, 10 mg/kg) was 27.4 ng/mL and 39.2 ng/mL and 37.8 ng/mL and 24.6 ng/mL and 47.1 ng/mL and 37.6 ng/mL and 54.8 ng/mL and 42.6 ng/mL and the “Concentration of free form in plasma” value ([5]; male Wistar rats, 3 h, individual rats 01-08, listed as mono-fumarate, 10 mg/kg) was 12.4 ng/mL and 17.7 ng/mL and 25.3 ng/mL and 11.7 ng/mL and 19.6 ng/mL and 20.6 ng/mL and 25.1 ng/mL and 23.2 ng/mL. The “Concentration of free form in plasma” value ([5]; male Wistar rats, 4 h, individual rats 01-08, listed as mono-fumarate, 10 mg/kg) was 9.06 ng/mL and 10.6 ng/mL and 13.3 ng/mL and 5.90 ng/mL and 9.71 ng/mL and 11.8 ng/mL and 13.0 ng/mL and 11.1 ng/mL, the “Concentration of free form in plasma” value ([5]; male Wistar rats, 6 h, individual rats 01-08, listed as mono-fumarate, 10 mg/kg) was 7.49 ng/mL and 3.47 ng/mL and 7.63 ng/mL and 5.79 ng/mL and 4.29 ng/mL and 4.24 ng/mL and 4.05 ng/mL and 3.87 ng/mL and the “Concentration of free form in plasma” value ([5]; male Wistar rats, 8 h, individual rats 01-08, listed as mono-fumarate, 10 mg/kg) was 2.91 ng/mL and 2.35 ng/mL and 3.62 ng/mL and 2.62 ng/mL and 2.46 ng/mL and 1.94 ng/mL and 2.38 ng/mL and 2.07 ng/mL. For the same compound, the “AUClast” value [5, 11] was 202 ng·h/mL and 259 ng·h/mL and 212 ng·h/mL and 188 ng·h/mL and 269 ng·h/mL and 292 ng·h/mL and 298 ng·h/mL and 272 ng·h/mL, the “Cmax” value [5, 11] was 167 ng/mL and 162 ng/mL and 78.4 ng/mL and 99.7 ng/mL and 242 ng/mL and 204 ng/mL and 184 ng/mL and 153 ng/mL and the “Cmax/Dose (ng/mL)/(mg/kg)” value [5, 11] was 17.2 (ng/mL)/(mg/kg) and 16.4 (ng/mL)/(mg/kg) and 7.88 (ng/mL)/(mg/kg) and 10.2 (ng/mL)/(mg/kg) and 25.2 (ng/mL)/(mg/kg) and 21.1 (ng/mL)/(mg/kg) and 18.3 (ng/mL)/(mg/kg) and 15.7 (ng/mL)/(mg/kg). The “Tlast” value [5, 11] was 8.0 h (2×) and 24.0 h (6×), the “Tmax” value [5, 11] was 0.25 h (5×) and 0.50 h (3×) and the “T½” value [5, 11] was 2.44 h and 5.02 h and 3.62 h and 3.71 h and 2.02 h and 3.97 h and 5.51 h. For the same compound, the “T½ (h), Mean All” value ([5]; male Wistar rats, mean) was 3.76 h, the “hygroscopicity (in words)” value [6] was “slightly hygroscopic” and the moisture gain ([6]; at 85% relative humidity (RH)) was 0.5%. For the same compound, the “Hygroscopy @ 85% RH” value ([6]; comparison table, Example 7) was 0.5, the solid-state stability [7] was “good” and the “stability in buffer solutions” value ([7]; many buffer solutions, various pH values) was “good stability”. The “Known Multiple forms” value [8] was “No” and the Decomposition temperature [9] was 207.

Reference: US10421755B2, “Salts of aza-bicyclic di-aryl ethers and methods to make them or their precursors” (Novartis AG, priority 2011, dated 2019)
